In patent US7622489B2, “Mitotic kinesin inhibitors” (Merck & Co., Inc., priority 2002, dated 2009):

Molecular target: T1, human KSP motor domain (KSP(367H)) (Homo sapiens, UniProt P52732)
T1 construct: were used to amplify the motor domain and the neck linker region; made in house; host or cells: E. coli BL21 (DE3), vector pRSETa
T1 sequence (P52732 18-359 limits assumed): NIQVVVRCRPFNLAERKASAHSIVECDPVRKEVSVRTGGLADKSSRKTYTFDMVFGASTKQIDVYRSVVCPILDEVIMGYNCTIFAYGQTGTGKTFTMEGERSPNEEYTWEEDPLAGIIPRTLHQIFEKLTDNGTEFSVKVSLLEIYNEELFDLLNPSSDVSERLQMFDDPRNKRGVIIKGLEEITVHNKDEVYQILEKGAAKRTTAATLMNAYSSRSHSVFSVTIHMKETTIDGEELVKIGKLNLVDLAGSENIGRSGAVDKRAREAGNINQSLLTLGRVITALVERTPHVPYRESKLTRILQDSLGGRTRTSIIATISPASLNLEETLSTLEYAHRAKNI
Experiment: Kinesin ATPhase In Vitro Assay
Type: biochemical
Conditions: kinesin motor domain with microtubules, 1 mM ATP, 23° C.; free phosphate by quinaldine red/ammonium molybdate, 540 nm
From the text: I. Kinesin ATPhase In Vitro Assay
Cloning and Expression of Human Poly-Histidine Tagged KSP Motor Domain (KSP(367H))
Plasmids for the expression of the human KSP motor domain construct were cloned by PCR using a pBluescript full length human KSP construct (Blangy et al., Cell, vol. 83, pp1159-1169, 1995) as a template. The N-terminal primer 5′-[…] (SEQ. ID. NO.: 1) and the C-terminal primer 5′-[…] […] (SEQ. ID. NO.: 2) were used to amplify the motor domain and the neck linker region. The PCR products were digested with AseI and XhoI, ligated into the NdeIlXhoI digestion product of pRSETa (Invitrogen) and transformed into E. coli BL21 (DE3).
Cells were grown at 37 IC to an OD600 of 0.5. […]
The kinesin motor domain is incubated with microtubules, 1 mM ATP (1:1 MgCl2: Na-ATP), and compound at 23° C. in buffer containing 80 mM K-HEPES (pH 7.0), 1 mM EGTA, 1 mM DTT, 1 mM MgCl2, and 50 mM KCl. […] Free phosphate from the ATP hydrolysis reaction is measured via a quinaldine red/ammonium molybdate assay by adding 150 μl of quench C buffer containing a 2:1 ratio of quench A:quench B. Quench A contains 0.1 mg/mil quinaldine red and 0.14% polyvinyl alcohol; quench B contains 12.3 mM ammonium molybdate tetrahydrate in 1.15 M sulfuric acid. The reaction is incubated for 10 minutes at 23° C., and the absorbance of the phospho-molybdate complex is measured at 540 nm.

Row | SMILES | IC50
1 | CC(C)[C@H](N)C(=O)N1CCC(c2cc(F)ccc2F)=CC1c1cccc(O)c1 (some centres unmarked) [Compound 2-2] | ≤ 15 µM
2 | CNCC(C)CN(C)C(=O)N1CCC(c2cc(F)ccc2F)=CC1c1cccc(O)c1 (centres unmarked) [Compound 3-3, 4-(2,5-difluorophenyl)-6-(3-hydroxyphenyl)-N-methyl-N-[2-methyl-3-(methylamino)propyl]-3,6-dihydropyridine-1(2H)-carboxamide] | ≤ 15 µM
